{"source": "patent US20120107903A1", "about": "(priority 2010, published 2012)", "key": {"[1]": {"test_system": "OC[C@H]1OC(O)[C@H](O)[C@@H](O)[C@@H]1O", "assay": "cells, lysate or membranes named"}, "[2]": {"molecular_target": "Ralstonia pickettii 12D FAD dependent oxidoreductase, wild type, SEQ ID NO:9 (Ralstonia pickettii, UniProt A0ABM9ITV6)"}, "[3]": {"molecular_target": "Ralstonia solanacearum IPO1609 transmembrane dehydrogenase, wild type, SEQ ID NO:10 (Ralstonia solanacearum, UniProt A0ABF7REW7)"}, "[4]": {"molecular_target": "Burkholderia cenocepacia J2315 putative oxidoreductase (SEQ ID NO:7), variant QYY, S326Q/S365Y/A472Y (Burkholderia cenocepacia, UniProt B4ELB3, A472Y/S326Q/S365Y)", "type": "biochemical", "details": "read-out: Km (Mal)"}, "[5]": {"test_system": "OC[C@H]1O[C@H](O[C@H]2[C@H](O)[C@@H](O)C(O)O[C@@H]2CO)[C@H](O)[C@@H](O)[C@@H]1O", "assay": "cells, lysate or membranes named", "details": "pH 7.0"}, "[6]": {"molecular_target": "Burkholderia cepacia KS1 glucose dehydrogenase (α-subunit SEQ ID NO:3), variant QYA (QY), 326Gln+365Tyr (Burkholderia cepacia, UniProt Q8GQE7, S326Q/S365Y)", "type": "biochemical", "details": "pH 7"}, "[7]": {"molecular_target": "Burkholderia cepacia KS1 glucose dehydrogenase (α-subunit SEQ ID NO:3), variant QYR, 326Gln+365Tyr+472Arg (Burkholderia cepacia, UniProt Q8GQE7, A472R/S326Q/S365Y)", "type": "biochemical", "details": "pH 7"}, "[8]": {"molecular_target": "Burkholderia cepacia KS1 glucose dehydrogenase (α-subunit SEQ ID NO:3), variant QYY, 326Gln+365Tyr+472Tyr (Burkholderia cepacia, UniProt Q8GQE7, A472Y/S326Q/S365Y)", "type": "biochemical", "details": "pH 7"}, "[9]": {"molecular_target": "Burkholderia thailandensis TXDOH hypothetical protein BthaT_07876 (SEQ ID NO:8), variant QYY, S324Q/S363Y/A470Y (Burkholderia thailandensis, UniProt Q2T5D8, A470Y/S324Q/S363Y)"}, "[10]": {"molecular_target": "Ralstonia pickettii 12D FAD dependent oxidoreductase (SEQ ID NO:9), variant QYY, S327Q/S366Y/A473Y (Ralstonia pickettii, UniProt A0ABM9ITV6, A473Y/S327Q/S366Y)", "type": "biochemical"}}}
{"compound": "(Burkholderia cepacia)", "values": [{"measurement": "Km", "setting": "[1]; pH 7.5", "value": 1350, "unit": "µM"}, {"measurement": "Vmax", "setting": "[1]; pH 7.5", "value": 100, "unit": "µmol/min/mg"}]}
{"compound": "OC[C@H]1O[C@H](O[C@H]2[C@H](O)[C@@H](O)C(O)O[C@@H]2CO)[C@H](O)[C@@H](O)[C@@H]1O", "note": "(some centres unmarked) [Mal, maltose]", "values": [{"measurement": "Vmax (Mal)", "setting": "[2]", "value": 0.94, "unit": "U/mL"}, {"measurement": "Vmax (Mal)", "setting": "[3]", "value": 0.14, "unit": "U/mL"}, {"measurement": "Km", "setting": "[4]", "value": "> 100000", "unit": "µM"}]}
{"compound": "(Burkholderia cenocepacia J2315)", "values": [{"measurement": "Km", "setting": "[1]; pH 7.0", "value": 110, "unit": "µM"}, {"measurement": "Vmax", "setting": "[1]; pH 7.0", "value": 2.05, "unit": "U/mL"}, {"measurement": "Km", "setting": "[5]", "value": 1300, "unit": "µM"}, {"measurement": "Vmax", "setting": "[5]", "value": 1.87, "unit": "U/mL"}]}
{"compound": "(Ralstonia pickettii)", "values": [{"measurement": "Km", "setting": "[5]", "value": 2020, "unit": "µM"}]}
{"compound": "(Ralstonia solanacearum IPO1609)", "values": [{"measurement": "Km", "setting": "[5]", "value": 2640, "unit": "µM"}]}
{"compound": "OC[C@H]1OC(O)[C@H](O)[C@@H](O)[C@@H]1O", "note": "(some centres unmarked) [Glucose, glucose]", "values": [{"measurement": "Vmax (Glc.)", "setting": "[6]", "value": "Vmax (Glc.) = 149.3 U/mg protein"}, {"measurement": "Vmax (Glc.)", "setting": "[7]", "value": "Vmax (Glc.) = 93.5 U/mg protein"}, {"measurement": "Vmax (Glc.)", "setting": "[8]", "value": "Vmax (Glc.) = 131.6 U/mg protein"}, {"measurement": "Vmax (Glc)", "setting": "[9]", "value": 48.8, "unit": "U/mL"}, {"measurement": "Vmax (Glc)", "setting": "[3]", "value": 0.14, "unit": "U/mL"}, {"measurement": "Vmax (Glc)", "setting": "[10]", "value": 1.62, "unit": "U/mL"}]}
